From patent US20100222319A1, “NICOTINAMIDE DERIVATIVES, PREPARATION THEREOF AND THERAPEUTIC USE THEREOF” (SANOFI-AVENTIS, priority 2007, published 2010)

Assays:
[1] = tested on: HCT116 (ATCC-CCL247); test: MTS cell proliferation and viability test on HCT116 tumour line; assay type: cell-based; conditions: Homo sapiens, HCT-116, incubating the test compound for 72 hours, read-out: IC50 HCT116 (concentration which results in 50% loss of cell proliferation and viability)
Experimental: (§1) The compounds described in Table I have formed the subject of pharmacological trials which make it possible to determine the anticancer activity. They were tested in vitro on the following tumour lines: HCT116 (ATCC-CCL247) and PC3 (ATCC-CRL1435). The cell proliferation and viability were determined in a test using 3-(4,5-dimethylthiazol-2-yl)-5-(3-carboxymethoxyphenyl)-2-(4-sulphophenyl)-2H-tetrazolium (MTS) according to Fujishita T. et al., Oncology, 2003, 64(4), 399-406. In this test, the mitochondrial capacity of the living cells to convert MTS to a coloured compound after incubating the test compound for 72 hours is measured. The concentration of compound which results in 50% loss of cell proliferation and viability is recorded as IC50.

[2] = tested on: PC3 (ATCC-CRL1435); test: MTS cell proliferation and viability test on PC3 tumour line; assay type: cell-based; conditions: incubating the test compound for 72 hours, read-out: IC50 PC3 (concentration which results in 50% loss of cell proliferation and viability)
Experimental: as §1

| melting point | IC50 [1] | IC50 [2] | Compound |
| --- | --- | --- | --- |
| 260 to 263 °C |  |  | CCNc1nc(-c2ccc(NC(=O)NCc3cccnc3)cc2)ccc1C(=O)NC [Compound 1, 2-Ethylamino-N-methyl-6-[4-(3-pyridin-3-ylmethyl-ureido)-phenyl]-nicotinamide] |
| 234 to 236 °C |  |  | CNC(=O)c1ccc(-c2ccc(NC(=O)NCc3cccnc3)cc2)nc1N [Compound 3, 2-Amino-N-methyl-6-[4-(3-pyridin-3-ylmethyl-ureido)-phenyl]-nicotinamide] |
|  | 1.8 nM | 0.8 nM | CCNc1nc(-c2ccc(NC(=O)NCc3cccnc3)cc2)ccc1C(=O)NCCN1CCNCC1 [Compound 5, 2-Ethylamino-N-(2-piperazin-1-yl-ethyl)-6-[4-(3-pyridin-3-ylmethyl-ureido)-phenyl]-nicotinamide] |
| 160 to 162 °C |  |  | CCNc1nc(-c2ccc(NC(=O)NCc3cccnc3)cc2)ccc1C(=O)NCCN(C(C)C)C(C)C [Compound 8, N-(2-Diisopropylamino-ethyl)-2-ethylamino-6-[4-(3-pyridin-3-ylmethyl-ureido)-phenyl]-nicotinamide] |
|  | 19 nM | 113 nM | CNC(=O)c1ccc(-c2ccc(NC(=O)NCc3cccnc3)cc2)nc1NCc1cccnc1 [Compound 12, N-Methyl-2-[(pyridin-3-ylmethyl)-amino]-6-[4-(3-pyridin-3-ylmethyl-ureido)-phenyl]-nicotinamide] |
| 164 to 165 °C | 0.1 nM | 0.2 nM | CCNc1nc(-c2ccc(NC(=O)NCc3cccnc3)cc2)ccc1C(=O)NCCN1CCCCC1 [Compound 13, 2-Ethylamino-N-(2-piperidin-1-yl-ethyl)-6-[4-(3-pyridin-3-ylmethyl-ureido)-phenyl]-nicotinamide] |
| 218 to 219 °C |  |  | CNC(=O)c1ccc(-c2ccc(NC(=O)NCc3cccnc3)cc2)nc1NCc1ccncc1 [Compound 15, N-Methyl-2-[(pyridin-4-ylmethyl)-amino]-6-[4-(3-pyridin-3-ylmethyl-ureido)-phenyl]-nicotinamide] |
|  | 294 nM | 266 nM | CNC(=O)c1ccc(-c2ccc(NC(=O)NCc3cccnc3)cc2)nc1NCCN1CCCCC1 [Compound 17, N-Methyl-2-(2-piperidin-1-yl-ethylamino)-6-[4-(3-pyridin-3-ylmethyl-ureido)-phenyl]-nicotinamide] |
|  | 34 nM | 28 nM | CNC(=O)c1ccc(-c2ccc(NC(=O)NCc3cccnc3)cc2)nc1NCc1ccccc1 [Compound 19, 2-Benzylamino-N-methyl-6-[4-(3-pyridin-3-ylmethyl-ureido)-phenyl]-nicotinamide] |
| 223 to 226 °C |  |  | CCNc1nc(-c2ccc(NC(=O)NCc3ccc(N)nc3)cc2)ccc1C(=O)NC [Compound 21, 6-{-4-[3-(6-Amino-pyridin-3-ylmethyl)-ureido]-phenyl}-2-ethylamino-N-methyl-nicotinamide] |
| 234 to 236 °C | 0.1 nM | 0.1 nM | CNC(=O)c1ccc(-c2ccc(NC(=O)NCc3cccnc3)cc2)nc1Nc1ccccc1 [Compound 22, N-Methyl-2-phenylamino-6-[4-(3-pyridin-3-ylmethyl-ureido)-phenyl]-nicotinamide] |
|  | 0.1 nM | 0.1 nM | CNC(=O)c1ccc(-c2ccc(NC(=O)NCc3cccnc3)cc2)nc1NC1CC1 [Compound 23, 2-Cyclopropylamino-N-methyl-6-[4-(3-pyridin-3-ylmethyl-ureido)-phenyl]-nicotinamide] |
|  | 2.2 nM | 1.7 nM | CCN(CC)c1nc(-c2ccc(NC(=O)NCc3cccnc3)cc2)ccc1C(=O)NC [Compound 25, 2-Diethylamino-N-methyl-6-[4-(3-pyridin-3-ylmethyl-ureido)-phenyl]-nicotinamide] |
|  | 6.3 nM | 4.4 nM | CCNc1nc(-c2ccc(NC(=O)NCc3cccnc3)cc2)ccc1C(=O)NCCO [Compound 26, 2-Ethylamino-N-(2-hydroxy-ethyl)-6-[4-(3-pyridin-3-ylmethyl-ureido)-phenyl]-nicotinamide] |
| 234 to 235 °C |  |  | CCNc1nc(-c2ccc(NC(=O)OCc3cccnc3)cc2)ccc1C(=O)NC [Compound 29, [4-(6-Ethylamino-5-methylcarbamoyl-pyridin-2-yl)-phenyl]-carbamic acid pyridin-3-ylmethyl ester] |
|  | 0.37 nM | 0.3 nM | O=C(NCc1cccnc1)Nc1ccc(-c2ccc(C(=O)NCCN3CCCC3)c(Nc3ccccc3)n2)cc1 [Compound 33, 2-Phenylamino-6-[4-(3-pyridin-3-ylmethyl-ureido)-phenyl]-N-(2-pyrrolidin-1-yl-ethyl)-nicotinamide] |
|  | 11 nM | 10 nM | CCNc1nc(-c2ccc(NC(=O)NCc3cccnc3)cc2)ncc1C(=O)NC [Compound 47, 4-Ethylamino-2-[4-(3-pyridin-3-ylmethyl-ureido)-phenyl]-pyrimidine-5-carboxylic acid methylamide] |
|  | 331 nM | 316 nM | CNC(=O)c1ccc(-c2ccc(NC(=O)NCc3cccnc3)cc2)nc1N1CCCC1 [Compound 49, N-Methyl-6-[4-(3-pyridin-3-ylmethyl-ureido)-phenyl]-2-pyrrolidin-1-yl-nicotinamide] |
|  | 77 nM | 78 nM | CNC(=O)c1ccc(-c2ccc(NC(=O)NCc3cccnc3)cc2)nc1NCCOC [Compound 51, 2-(2-Methoxy-ethylamino)-N-methyl-6-[4-(3-pyridin-3-ylmethyl-ureido)-phenyl]-nicotinamide] |
|  | 35 nM | 45 nM | CCNc1cc(-c2ccc(NC(=O)NCc3cccnc3)cc2)ncc1C(=O)NC [Compound 55, 4-Ethylamino-N-methyl-6-[4-(3-pyridin-3-ylmethyl-ureido)-phenyl]-nicotinamide] |
|  | 2.5 nM | 1.2 nM | CCNc1cc(-c2ccc(NC(=O)NCc3cccnc3)cc2)ccc1C(=O)NC [Compound 62, 3-Ethylamino-4′-(3-pyridin-3-ylmethyl-ureido)-biphenyl-4-carboxylic acid methylamide] |
|  | 116 nM | 21 nM | CCNc1nc(-c2ccc(NC(=O)/C=C/c3cccnc3)cc2)ccc1C(=O)NCCN(C(C)C)C(C)C [Compound 74, N-(2-Diisopropylamino-ethyl)-2-ethylamino-6-[4-((E)-3-pyridin-3-yl-acryloylamino)-phenyl]-nicotinamide] |
|  | 0.1 nM | 0.1 nM | CCNc1nc(-c2ccc(NC(=O)NCc3ccc(N)nc3)cc2)ccc1C(=O)NCCN1CCCCC1 [Compound 81, 6-{-4-[3-(6-Amino-pyridin-3-ylmethyl)-ureido]-phenyl}-2-ethylamino-N-(2-piperidin-1-yl-ethyl)-nicotinamide] |
|  | 1.8 nM | 3 nM | CCNc1nc(-c2ccc(NC(=O)NCc3ccc(N)nc3)cc2)ccc1C(=O)NCCN1CC[S+]([O-])CC1 [Compound 103, 6-{-4-[3-(6-Amino-pyridin-3-ylmethyl)-ureido]-phenyl}-2-ethylamino-N-[2-(1-oxo-1-thiomorpholin-4-yl)-ethyl]-nicotinamide] |
|  | 221 nM | 105 nM | CCNc1nc(-c2ccc(NC(=O)NCc3ccc(NC(=O)C(C)C)nc3)cc2)ccc1C(=O)NCCN1CCCCC1 [Compound 107, 2-Ethylamino-6-{4-[3-(6-isobutyrylamino-pyridin-3-ylmethyl)-ureido]-phenyl}-N-(2-piperidin-1-yl-ethyl)-nicotinamide] |
|  | 271 nM | 345 nM | CCNc1nc(-c2ccc(NC(=O)NCc3ccc(NC(C)C)nc3)cc2)ccc1C(=O)NCCN1CCCCC1 [Compound 108, 2-Ethylamino-6-{-4-[3-(6-isopropylamino-pyridin-3-ylmethyl)-ureido]-phenyl}-N-(2-piperidin-1-yl-ethyl)-nicotinamide] |
|  | 0.1 nM | 0.1 nM | CCNc1nc(-c2ccc(NC(=O)NCc3ccc(N)nc3)cc2)ccc1C(=O)NCCN1C[C@@H](C)O[C@@H](C)C1 [Compound 114, 6-{-4-[3-(6-Amino-pyridin-3-ylmethyl)-ureido]-phenyl}-N-[2-(cis-2,6-dimethyl-morpholin-4-yl)-ethyl]-2-ethylamino-nicotinamide] |
